From patent EP0324328B1, “Use of the N-n-butyl derivative of desoxynojirimycin in the manufacture of a medicament inhibiting HIV-Virus” (priority 1987, dated 1989)
Where two headings read alike, the source gives them in different places.

Assays:
T-45 cells = format: cell-based, human; settings: for Estimated Cell Growth Virus-uninfected Day 7: no-drug control 1.2x10^6; for cytotoxicity: non-infected cells, over the concentration range used (Fig. 3, Table 1), result in words
Description: FIG. 1 is a schematic outline of the test procedure used to assess the cytotoxic effect of test compounds on T-cells either infected or non-infected with HIV and in parallel the HIV inhibitory activity of the test compounds. TCID is the tissue culture infectious dose. Cells were cultured in RPMI-1640 medium with 10% fetal calf serum containing 100 units/ml penicillin G and 100 µg/ml streptomycin.
(§1) The assay was run in 96 well plastic microtiter plates in which 0.2 ml of culture medium containing 10^4 T-cells are seeded into each well. RPMI-1640 supplemented with 10% fetal calf serum was used as the culture medium. In each assay, 6 wells are used. Three (1-3) are infected with 10^4 TCID/well of HIV-1 or HIV-2 and to the other three (4-6) culture medium alone is added. Medium is changed at the same intervals for each test compound. The detailed assay procedure is illustrated in Figures 1 and 2.
(§2) The efficacy of the test compounds used in this example was assessed as follows: 0.2 ml of culture medium containing 10^4 T-45 cells were transferred into each well of a 96-well flat-bottomed tissue-culture plastic plate and the cells were allowed to settle at 37°C (see Figure 1). After 4 hours the media were aspirated and replaced with media which contained the test compound. Following overnight incubation the media was aspirated and 10^4 TCID of virus (HIV-1 or HIV-2) was added to each well. Incubation was continued at 37°C in 5% CO2 for 1 hour. Thereafter, growth media containing the various compounds were added and incubation at 37°C was continued. On the fourth day the cell suspensions from each well were split and seeded into two new wells and 0.2 ml of fresh media with compounds was added. This was repeated on the seventh day. Cells were examined by microscopy during days 1 to 10 for the presence of syncytia, growth rate and the appearance of the cytopathic effect (CPE) (giant cells, pycnotic nuclei, loss of refractility). CPE (100%) was defined as no round, refractile, uniform cells remaining; only giant, ballooned pyknotic cells were present. The viability of HIV infected cultures was determined by a rough count/estimate of cells which underwent CPE in relation to round refractile uniform (normal) cells in a given culture.
Quantitative data on the effect of the various compounds on the non-infected cells (cytotoxicity) was obtained by comparison of their growth rate to control cells not exposed to drugs (Table 1). […] In addition, the MOLT-4 cell line was also used.

HIV [1] = assay: Inhibition of HIV-associated cytopathic effect (CPE) in T-45 cells; format: cell-based; settings: HIV infected T-45 cells, various concentrations (Fig. 3); result in words
Description: FIG. 3 is a graphical representation in which the inhibition of HIV associated CPE (―% CPE) reduction) and test compound-associated cytotoxicity (---% cell death) is plotted against the media concentration in mg/ml of several test compounds (drugs). The cell viability data was determined for non-HIV infected cells. The test compounds were the N-methyl-, N-ethyl-, and N-butyl derivatives of deoxynojirimycin (DNJ), castanospermine (Cast), N-(5-carboxymethyl-1-pentyl)-1,5-imino-L-fucitol (LFT) and 1,4-dideoxy-1,4-imino-L-arabinitol (LAB).
After a suitable period of incubation, the cultures are scored for the presence of so-called syncytial cells (giant cells). Typical examples of such a test for the evaluation of inhibitors of HIV have been disclosed by Fung et al., Bio/Technology 5, 940-946 (1987); Tyms et al., Lancet, October 31, 1987, pp. 1025-1026; Gruters et al., Nature 330, 74-77 (1987); and Walker et al., Proc. Natl. Acad. Sci. USA 84, 8120-8124 (1987).
as §2, with “culture. Cells in wells which were incubated with compounds which appeared to inhibit or reduce HIV replication and in which there was marked cell proliferation were either transferred to larger wells (of a 24-well plate) or divided in order to maintain an approximate constant cell density to promote continuous cell division.” for “culture.”

HIV [2] = settings: result in words; see Fleet et al., FEBS Lett., In Press, 1988; cited from earlier work
HIV [3] = settings: cited from earlier work; for effect upon HIV infectivity: Gruters et al., Nature 330, 74-77 (1987)
HIV-1 = assay: Virus titer (TCID) of HIV-1 infected T-cell cultures grown with test compound; format: cell-based; settings: control 10^6; for HIV-1 (TCID): Table 2, 0.10 mg/ml, 10^4 T-45 or MOLT-4 cells (identical results), 10^4 TCID inoculum, after day 10; for VIRUS TITER HIV-1: Table 3, Example 2, 0.1 mg/ml, T-45 and MOLT-4 cells, 10^4 TCID on 10^4 cells
Description: (§3) Cell free suspensions of the HIV were prepared from infected cultures. The concentration of infectious particles was estimated on end-point titration assay using serial ten-fold dilutions. The approximate number of infectious particles in each preparation was determined by the highest dilution which contains infectious HIV as determined by synctial formation, cytopathicity [Leonard et al., Proc. Natl. Acad. Sci. USA 85, 3570-3574 (1988); Barre-Sinoussi et al., Science 220, 868-870 (1983)] and HIV antigen [Karpas et al., Lancet 1, 695-697 (1985)] synthesis after 10 days of culture with 10^4 T-cells. This represents the concentration of infectious particles, herein defined as the tissue culture infectious dose (TCID).
as §1
as §2, with “culture. Cells in wells which were incubated with compounds which appeared to inhibit or reduce HIV replication and in which there was marked cell proliferation were either transferred to larger wells (of a 24-well plate) or divided in order to maintain an approximate constant cell density to promote continuous cell division.” for “culture.”
(§4) That is, HIV-1 was first passaged in T-45 cells; likewise, HIV-1 was first passaged in MOLT-4 cells. The same passaging was done with HIV-2. The test compounds were used at a concentration of 0.1 mg/ml. 10^4 TCID of HIV-1 and separately of HIV-2 were used to infect 10^4 cells. Upon completion of the test, the virus titers were as follows: TABLE 3

HIV-2 = assay: Virus titer (TCID) of HIV-2 infected T-cell cultures grown with test compound; format: cell-based; settings: control 10^6; for HIV-2 (TCID): Table 2, 0.10 mg/ml, 10^4 T-45 or MOLT-4 cells (identical results), 10^4 TCID inoculum, after day 10; for VIRUS TITER HIV-2: Table 3, Example 2, 0.1 mg/ml, T-45 and MOLT-4 cells, 10^4 TCID on 10^4 cells
Description: as §3, §1
as §2, with “culture. Cells in wells which were incubated with compounds which appeared to inhibit or reduce HIV replication and in which there was marked cell proliferation were either transferred to larger wells (of a 24-well plate) or divided in order to maintain an approximate constant cell density to promote continuous cell division.” for “culture.”
as §4

HIV [4] = assay: TCID titre of culture supernatants of T-45 cells infected with HIV, Fig. 4; format: cell-based; settings: for reduction of TCID titre of culture supernatants: T-45 cells infected with HIV, after 10 days in culture, result in words
Description: FIG. 4 is a graphical representation in which the viral titer (determined as TCID) is plotted against the concentration in mg/ml of various of the test compounds (drugs) of FIG. 3 in panels (a) and (b).
as §3
as §2, with “culture. Cells in wells which were incubated with compounds which appeared to inhibit or reduce HIV replication and in which there was marked cell proliferation were either transferred to larger wells (of a 24-well plate) or divided in order to maintain an approximate constant cell density to promote continuous cell division.” for “culture.”
Quantitative data on the effect of the various compounds on the non-infected cells (cytotoxicity) was obtained by comparison of their growth rate to control cells not exposed to drugs (Table 1). Fig. 4 and Table 2 show the relation between the TCID titre of culture supernatants of T-45 cells infected with HIV after 10 days in culture and the concentration of drug. […] The inability of any of these drugs alone to totally reduce the TCID may be due to heterogeneity of virus production or spread. […] In addition, the MOLT-4 cell line was also used.

[5] = test system: B16-F10 murine melanoma cells; assay: Incorporation of radiolabeled galactose, mannose, glucose and thymidine into cells; format: cell-based; settings: result in words

Compound: O[C@H]1[C@H](O)[C@@H](O)CN2CC[C@H](O)[C@H]12 [Cast, castanospermine]
- Estimated Cell Growth Virus-uninfected Day 7 (T-45 cells; Dosage 0.02 mg/ml): 1.2x10^6
- Estimated Cell Growth Virus-uninfected Day 7 (T-45 cells; Dosage 0.09 mg/ml): 1.0x10^6
- Estimated Cell Growth Virus-uninfected Day 7 (T-45 cells; Dosage 0.18 mg/ml): 8.0x10^5
- Estimated Cell Growth Virus-uninfected Day 7 (T-45 cells; Dosage 0.35 mg/ml): 8.0x10^5
- Estimated Cell Growth Virus-uninfected Day 7 (T-45 cells; Dosage 0.70 mg/ml): Toxic
- cytotoxicity (T-45 cells): cytotoxic
- effect on CPE formation (HIV [1]): bell shaped dose-dependence
- HIV inhibitory activity / effect on CPE (HIV [2]): inhibition of the cytopathic effect (CPE) by the α-glucosidase I inhibitor castanospermine is confirmed
- reduction in virion infectivity (HIV [3]; background literature, b4): only a modest reduction in virion infectivity

Compound: OC[C@H]1NC[C@@H](O)[C@@H]1O [D-enantiomer of 1,4-dideoxy-1,4-imino-arabinitol, 1,4-dideoxy-1,4-imino-arabinitol]
- HIV inhibitory activity / effect on CPE (HIV [2]): very little effect on HIV replication

Compound: OC[C@H]1NC[C@@H](O)[C@@H](O)[C@@H]1O [DMJ, deoxymannojirimycin]
- effect upon HIV infectivity (HIV [3]): absence of effect

Compound: OC[C@H]1NC[C@H](O)[C@@H](O)[C@@H]1O [DNJ, 1,5-dideoxy-1,5-imino-D-glucitol]
- Estimated Cell Growth Virus-uninfected Day 7 (T-45 cells; Dosage 0.25 mg/ml): 1.4x10^6
- Estimated Cell Growth Virus-uninfected Day 7 (T-45 cells; Dosage 0.50 mg/ml): 1.4x10^6
- HIV-1 (TCID) (HIV-1): 10^5 TCID
- VIRUS TITER HIV-1 (HIV-1): 10^5
- HIV-2 (TCID) (HIV-2): 10^5 TCID
- VIRUS TITER HIV-2 (HIV-2): 10^5
- reduction of TCID titre of culture supernatants (HIV [4]): reduced the TCID only partially
- galactose incorporation into the cells ([5]; radiolabeled galactose): substantially inhibited galactose incorporation into the cells at 1.0 mM or less
- glucose utilization/inhibition ([5]; radiolabeled glucose): inhibited in a normal dose-response manner
- mannose utilization ([5]; radiolabeled mannose): inhibited mannose utilization
- ^3H-Thymidine uptake into the cells [5]: inhibited incorporation at 2.0 mM
- effect upon HIV infectivity (HIV [3]): positive effect

Compound: CCN1C[C@H](O)[C@@H](O)[C@H](O)[C@H]1CO [EtDNJ, N-ethyl-deoxynojirimycin]
- Estimated Cell Growth Virus-uninfected Day 7 (T-45 cells; Dosage 0.01 mg/ml): 1.2x10^6
- Estimated Cell Growth Virus-uninfected Day 7 (T-45 cells; Dosage 0.05 mg/ml): 1.2x10^6
- Estimated Cell Growth Virus-uninfected Day 7 (T-45 cells; Dosage 0.10 mg/ml): 1.3x10^6
- cytotoxicity (T-45 cells): cytotoxic
- HIV-1 (TCID) (HIV-1): 10^3 TCID
- VIRUS TITER HIV-1 (HIV-1): 10^3
- HIV-2 (TCID) (HIV-2): 10^3 TCID
- VIRUS TITER HIV-2 (HIV-2): 10^3
- reduction of TCID titre of culture supernatants (HIV [4]): reduced the TCID only partially
- reduction of the virus titer / yield of infectious HIV (HIV [4]; at non-cytotoxic concentrations): two to four log-order of reduction
- effect on CPE formation (HIV [1]): bell shaped dose-dependence

Compound: O[C@@H]1[C@@H](O)[C@@H](O)CN2CC[C@H](O)[C@@H]12 [L-1,6-diepicastanospermine]
- HIV inhibitory activity / effect on CPE (HIV [2]): neither the epimer L-1,6-diepicastanospermine nor the stereoisomer of castanospermine, L-6-epicastanospermine, were found to be inhibitory

Compound: O[C@@H]1[C@@H](O)[C@@H](O)CN2CC[C@@H](O)[C@@H]12 [L-6-epicastanospermine]
- HIV inhibitory activity / effect on CPE (HIV [2]): neither the epimer L-1,6-diepicastanospermine nor the stereoisomer of castanospermine, L-6-epicastanospermine, were found to be inhibitory

Compound: OC[C@@H]1NC[C@H](O)[C@H]1O [LAB, 1,4-dideoxy-1,4-imino-L-arabinitol]
- Estimated Cell Growth Virus-uninfected Day 7 (T-45 cells; Dosage 0.10 mg/ml): 1.5x10^6
- Estimated Cell Growth Virus-uninfected Day 7 (T-45 cells; Dosage 0.25 mg/ml): 1.5x10^6
- Estimated Cell Growth Virus-uninfected Day 7 (T-45 cells; Dosage 0.50 mg/ml): 1.0x10^6
- cytotoxicity (T-45 cells): showed no cytotoxicity over the concentration range used
- reduction of TCID titre of culture supernatants (HIV [4]): only able to reduce the TCID partially
- HIV inhibitory activity / effect on CPE (HIV [2]): strong HIV inhibitory activity

Compound: OC[C@@H]1[C@@H](O)[C@H](O)[C@@H](O)CN1Cc1ccccc1 [N-benzyl derivative]
- HIV inhibitory activity / effect on CPE (HIV [2]): Neither the azofuranose analog of glucose nor the N-benzyl derivative were found to have an effect on CPE

Compound: OC[C@H]1NCC[C@@H](O)[C@@H]1O [fagomine]
- HIV inhibitory activity / effect on CPE (HIV [2]): no HIV inhibition was observed

Compound: N-(5-carboxymethyl-1-pentyl)-1,5-imino-L-fucitol [LFT]
- reduction of TCID titre of culture supernatants (HIV [4]): only able to reduce the TCID partially
